Data published in patent US9458110B2, “Phenylpyrazole derivatives as potent ROCK1 and ROCK2 inhibitors” (BRISTOL-MYERS SQUIBB COMPANY, priority 2013, dated 2016).

What was measured:
ROCK1 = ROCK1 (Homo sapiens (Human), UniProt Q13464); test: ROCK assay (Caliper LABCHIP peptide phosphorylation), ROCK1; format: biochemical; conditions: 5 μM ATP, 1.5 μM peptide substrate;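 also: Read-out is separation of phosphorylated from unphosphorylated peptide, with kinase activity inhibition computed at every concentration of a dose-response series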
Sequence of ROCK1 (Q13464 whole entry, species assumed): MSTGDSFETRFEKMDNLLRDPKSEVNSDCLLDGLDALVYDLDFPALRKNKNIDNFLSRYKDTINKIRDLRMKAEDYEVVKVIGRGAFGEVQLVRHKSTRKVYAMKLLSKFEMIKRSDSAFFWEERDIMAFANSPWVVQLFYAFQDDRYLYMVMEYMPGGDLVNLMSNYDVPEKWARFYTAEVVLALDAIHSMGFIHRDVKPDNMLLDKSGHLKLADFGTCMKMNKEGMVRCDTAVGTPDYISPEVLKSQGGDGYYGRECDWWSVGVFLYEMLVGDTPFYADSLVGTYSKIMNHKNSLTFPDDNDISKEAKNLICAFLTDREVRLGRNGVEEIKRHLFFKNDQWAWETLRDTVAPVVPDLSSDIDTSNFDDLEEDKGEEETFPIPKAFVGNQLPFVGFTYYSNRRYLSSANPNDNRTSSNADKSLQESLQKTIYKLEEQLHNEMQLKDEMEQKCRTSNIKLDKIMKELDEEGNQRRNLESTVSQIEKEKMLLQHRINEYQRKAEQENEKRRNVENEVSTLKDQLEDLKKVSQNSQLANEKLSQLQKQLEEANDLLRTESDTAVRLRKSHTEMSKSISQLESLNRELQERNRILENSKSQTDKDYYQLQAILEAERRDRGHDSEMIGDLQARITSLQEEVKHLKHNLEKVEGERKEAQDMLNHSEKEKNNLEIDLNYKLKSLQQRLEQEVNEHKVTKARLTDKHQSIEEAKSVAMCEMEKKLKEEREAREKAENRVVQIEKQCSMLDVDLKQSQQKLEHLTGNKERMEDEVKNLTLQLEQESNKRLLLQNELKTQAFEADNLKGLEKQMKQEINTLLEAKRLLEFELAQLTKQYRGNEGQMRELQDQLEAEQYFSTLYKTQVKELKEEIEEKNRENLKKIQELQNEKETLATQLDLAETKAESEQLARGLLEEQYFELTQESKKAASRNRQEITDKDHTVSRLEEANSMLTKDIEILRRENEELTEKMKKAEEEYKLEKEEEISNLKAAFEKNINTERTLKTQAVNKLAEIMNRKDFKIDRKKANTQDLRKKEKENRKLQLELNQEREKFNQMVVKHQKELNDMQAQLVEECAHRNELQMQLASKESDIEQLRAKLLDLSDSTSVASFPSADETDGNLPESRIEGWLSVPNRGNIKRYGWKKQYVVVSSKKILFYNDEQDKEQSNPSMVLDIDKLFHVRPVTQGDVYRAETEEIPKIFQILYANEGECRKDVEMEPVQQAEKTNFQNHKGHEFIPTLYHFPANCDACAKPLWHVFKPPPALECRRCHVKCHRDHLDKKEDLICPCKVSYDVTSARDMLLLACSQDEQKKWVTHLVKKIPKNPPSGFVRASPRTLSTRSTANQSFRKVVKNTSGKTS

ROCK2 = ROCK2 (Homo sapiens (Human), UniProt O75116); test: ROCK assay (Caliper LABCHIP peptide phosphorylation), ROCK2; format: biochemical; conditions: 5 μM ATP, 1.5 μM peptide substrate;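 also: reaction stopped with EDTA, then phosphorylated and unphosphorylated peptide resolved by microfluidic electrophoresis, kinase inhibition computed at each compound concentration in dose-response series, DMSO under 2%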
Sequence of ROCK2 (O75116 whole entry, species assumed): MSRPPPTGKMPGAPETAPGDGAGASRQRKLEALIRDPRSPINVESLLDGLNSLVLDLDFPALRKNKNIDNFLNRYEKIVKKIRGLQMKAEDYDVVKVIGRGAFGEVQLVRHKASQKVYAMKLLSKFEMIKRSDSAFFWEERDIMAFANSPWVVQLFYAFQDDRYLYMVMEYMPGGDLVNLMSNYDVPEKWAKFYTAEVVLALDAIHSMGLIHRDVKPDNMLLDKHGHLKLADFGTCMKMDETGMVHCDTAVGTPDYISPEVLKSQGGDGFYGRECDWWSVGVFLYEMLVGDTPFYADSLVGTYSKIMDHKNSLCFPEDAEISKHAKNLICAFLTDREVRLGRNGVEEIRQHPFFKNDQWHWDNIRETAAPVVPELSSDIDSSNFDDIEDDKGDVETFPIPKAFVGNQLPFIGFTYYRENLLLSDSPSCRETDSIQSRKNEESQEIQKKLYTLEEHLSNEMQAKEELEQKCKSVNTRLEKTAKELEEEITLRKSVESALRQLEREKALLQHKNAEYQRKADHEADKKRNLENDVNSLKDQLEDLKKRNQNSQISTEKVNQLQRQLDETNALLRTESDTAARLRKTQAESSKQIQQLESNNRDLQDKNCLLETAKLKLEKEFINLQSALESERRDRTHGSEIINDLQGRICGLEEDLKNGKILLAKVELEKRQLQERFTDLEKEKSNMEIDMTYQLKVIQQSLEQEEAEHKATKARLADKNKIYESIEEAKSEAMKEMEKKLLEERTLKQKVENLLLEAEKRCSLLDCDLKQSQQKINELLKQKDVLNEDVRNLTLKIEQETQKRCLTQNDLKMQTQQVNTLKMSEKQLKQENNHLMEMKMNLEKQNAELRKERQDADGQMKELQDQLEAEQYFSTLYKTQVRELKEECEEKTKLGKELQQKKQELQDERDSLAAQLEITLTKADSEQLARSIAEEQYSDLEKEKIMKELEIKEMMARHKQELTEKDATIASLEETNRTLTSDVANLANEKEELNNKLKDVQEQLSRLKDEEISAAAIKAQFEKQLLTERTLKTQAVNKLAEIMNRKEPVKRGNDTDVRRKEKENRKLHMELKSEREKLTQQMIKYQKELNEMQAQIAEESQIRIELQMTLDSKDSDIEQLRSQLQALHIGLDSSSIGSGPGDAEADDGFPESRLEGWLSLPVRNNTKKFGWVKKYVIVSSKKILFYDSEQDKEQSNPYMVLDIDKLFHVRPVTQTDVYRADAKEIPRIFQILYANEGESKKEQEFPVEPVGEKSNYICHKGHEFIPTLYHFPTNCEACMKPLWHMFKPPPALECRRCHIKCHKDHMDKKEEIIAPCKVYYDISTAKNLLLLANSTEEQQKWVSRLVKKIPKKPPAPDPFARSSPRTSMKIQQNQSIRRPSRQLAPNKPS

IC50 (ROCK1) [µM]	IC50 (ROCK2) [µM]	Structure (SMILES)
0.107	0.0333	COc1cc(C(=O)NCc2ccc(Cl)c(C(F)(F)F)c2)ccc1-c1cn[nH]c1 [Example 39, N-(4-chloro-3-(trifluoromethyl)benzyl)-3-methoxy-4-(1H-pyrazol-4-yl)benzamide]
0.337	0.224	COc1cc(C(=O)N[C@@H](C)[C@H](O)c2ccccc2)ccc1-c1cn[nH]c1 [Example 40, N-((1R,2S)-1-hydroxy-1-phenylpropan-2-yl)-3-methoxy-4-(1H-pyrazol-4-yl)benzamide]
0.00337	0.00254	COc1cc(C(=O)NCc2ccc(F)cc2Cl)ccc1-c1cn[nH]c1 [Example 41, N-(2-chloro-4-fluorobenzyl)-3-methoxy-4-(1H-pyrazol-4-yl)benzamide]
0.0263	0.011	COc1cc(C(=O)N[C@H](C)[C@@H](O)c2ccccc2)ccc1-c1cn[nH]c1 [Example 42, N-((1S,2R)-1-hydroxy-1-phenylpropan-2-yl)-3-methoxy-4-(1H-pyrazol-4-yl)benzamide]
0.0408	0.00131	COc1cc(C(=O)N[C@H](C)c2ccccc2Cl)ccc1-c1cn[nH]c1 [Example 43, (R)-N-(1-(2-chlorophenyl)ethyl)-3-methoxy-4-(1H-pyrazol-4-yl) benzamide]
0.0961	0.0525	COc1cc(C(=O)N[C@@H](C)c2ccccc2Cl)ccc1-c1cn[nH]c1 [Example 44, (S)-N-(1-(2-chlorophenyl)ethyl)-3-methoxy-4-(1H-pyrazol-4-yl)benzamide]
0.0169	0.00469	COc1cc(C(=O)NCc2ccc(Br)cc2Cl)ccc1-c1cn[nH]c1 [Example 45, N-(4-bromo-2-chlorobenzyl)-3-methoxy-4-(1H-pyrazol-4-yl)benzamide]
> 2	1.32	COc1cc(C(=O)NCc2ccc(Cl)cc2SCC(C)C)ccc1-c1cn[nH]c1 [Example 47, N-(4-chloro-2-(isobutylthio)benzyl)-3-methoxy-4-(1H-pyrazol-4-yl)benzamide]
0.663	1.32	COc1cc(C(=O)NCc2ccc(Oc3ccccc3)cc2Cl)ccc1-c1cn[nH]c1 [Example 48, N-(2-chloro-4-phenoxybenzyl)-3-methoxy-4-(1H-pyrazol-4-yl)benzamide]
0.0143	0.00247	COc1ccc(F)c(CNC(=O)c2ccc(-c3cn[nH]c3)c(OC)c2)c1 [Example 49, N-(2-fluoro-5-methoxybenzyl)-3-methoxy-4-(1H-pyrazol-4-yl)benzamide]
0.064	0.0167	COc1cc(C(=O)NCc2ccc(F)c(OC)c2F)ccc1-c1cn[nH]c1 [Example 50, N-(2,4-difluoro-3-methoxybenzyl)-3-methoxy-4-(1H-pyrazol-4-yl)benzamide]
0.0148	0.00535	COc1cc(C(=O)NCc2c(F)ccc(OC)c2F)ccc1-c1cn[nH]c1 [Example 51, N-(2,6-difluoro-3-methoxybenzyl)-3-methoxy-4-(1H-pyrazol-4-yl)benzamide]
0.125	0.0634	COc1cc(C(=O)NCc2cc(F)cc(F)c2)ccc1-c1cn[nH]c1 [Example 52, N-(3,5-difluorobenzyl)-3-methoxy-4-(1H-pyrazol-4-yl)benzamide]
0.0113	0.0062	COc1cc(-c2cn[nH]c2)ccc1C(=O)NCc1ccccc1Cl [Example 53, N-(2-Chlorobenzyl)-2-methoxy-4-(1H-pyrazol-4-yl)benzamide]
0.0213	0.00481	COc1cccc(CNC(=O)c2ccc(-c3cn[nH]c3)cc2OC)c1 [Example 54, 2-methoxy-N-(3-methoxybenzyl)-4-(1H-pyrazol-4-yl)benzamide]
0.147	0.101	COc1cc(C(=O)NCc2ccccc2Cl)ccc1-c1c[nH]nc1C [Example 57, N-(2-Chlorobenzyl)-3-methoxy-4-(3-methyl-1H-pyrazol-4-yl)benzamide]
0.0169	0.00228	COc1cccc(CNC(=O)c2ccc(-c3cn[nH]c3)c(C)c2)c1 [Example 58, N-(3-Methoxybenzyl)-3-methyl-4-(1H-pyrazol-4-yl)benzamide]
0.0333	0.0189	COc1cccc(CNC(=O)c2ccc(-c3cn[nH]c3)c(F)c2)c1 [Example 59, 3-Fluoro-N-(3-methoxybenzyl)-4-(1H-pyrazol-4-yl)benzamide]
> 2	4.59	COc1cccc([C@@H](C)NC(=O)c2ccc(-c3cn[nH]c3)cc2S(C)(=O)=O)c1 [Example 61, (R)-N-(1-(3-Methoxyphenyl)ethyl)-2-(methylsulfonyl)-4-(1H-pyrazol-4-yl)benzamide]
0.0433	0.00887	COc1cccc([C@@H](C)NC(=O)c2ccc(-c3cn[nH]c3)cc2F)c1 [Example 62, (R)-2-Fluoro-N-(1-(3-methoxyphenyl)ethyl)-4-(1H-pyrazol-4-yl)benzamide]

IC50 (ROCK1) [µM]	IC50 (ROCK2) [µM]	Structure (SMILES)
1.58	0.844	CN(C)CCOc1cc(C(=O)NCc2ccccc2Cl)ccc1-c1cn[nH]c1 [Example 63, N-(2-Chlorobenzyl)-3-(2-(dimethylamino)ethoxy)-4-(1H-pyrazol-4-yl)benzamide]
0.0077	0.0012	COc1cc(C(=O)NCc2cccc(C(=O)O)c2)ccc1-c1cn[nH]c1 [Example 64, 3-((3-Methoxy-4-(1H-pyrazol-4-yl)benzamido)methyl)benzoic acid]
0.0643	0.0235	COc1cc(C(=O)NCc2cccc(C(=O)N3CCCC3)c2)ccc1-c1cn[nH]c1 [Example 66, 3-methoxy-4-(1H-pyrazol-4-yl)-N-(3-(pyrrolidine-1-carbonyl)benzyl) benzamide]
0.0186	0.0052	COc1cc(C(=O)NCc2cc(F)ccc2F)ccc1-c1cn[nH]c1 [Example 69, N-(2,5-difluorobenzyl)-3-methoxy-4-(1H-pyrazol-4-yl)benzamide]
0.379	0.164	COc1cc(C(=O)N(C)CCc2ccccc2)ccc1-c1cn[nH]c1 [Example 70, 3-methoxy-N-methyl-N-phenethyl-4-(1H-pyrazol-4-yl)benzamide]
1.34	0.494	COc1cc(C(=O)N(C)Cc2ccccc2)ccc1-c1cn[nH]c1 [Example 71, N-benzyl-3-methoxy-N-methyl-4-(1H-pyrazol-4-yl)benzamide]
0.00591	0.00148	COc1cc(C(=O)N[C@H](C)c2ccccc2)ccc1-c1cn[nH]c1 [Example 72, (R)-3-methoxy-N-(1-phenylethyl)-4-(1H-pyrazol-4-yl)benzamide]
0.00903	0.00269	COc1cc(C(=O)N[C@H](C)c2ccc(F)cc2)ccc1-c1cn[nH]c1 [Example 73, (R)-N-(1-(4-fluorophenyl)ethyl)-3-methoxy-4-(1H-pyrazol-4-yl)benzamide]
0.0363	0.00918	COc1cc(C(=O)N[C@H](C)c2ccc3ccccc3c2)ccc1-c1cn[nH]c1 [Example 74, (R)-3-methoxy-N-(1-(naphthalen-2-yl)ethyl)-4-(1H-pyrazol-4-yl)benzamide]
0.0341	0.00826	COc1cc(C(=O)NCc2cc(F)c(F)c(F)c2)ccc1-c1cn[nH]c1 [Example 75, 3-methoxy-4-(1H-pyrazol-4-yl)-N-(3,4,5-trifluorobenzyl) benzamide]
0.00772	0.0022	COc1cc(C(=O)NCc2cc(Cl)ccc2Cl)ccc1-c1cn[nH]c1 [Example 76, N-(2,5-dichlorobenzyl)-3-methoxy-4-(1H-pyrazol-4-yl)benzamide]
1.24	0.401	COc1cc(C(=O)NCc2ccc3nc(N)sc3c2)ccc1-c1cn[nH]c1 [Example 77, N-((2-aminobenzo[d]thiazol-6-yl)methyl)-3-methoxy-4-(1H-pyrazol-4-yl)benzamide]
0.0218	0.00394	COc1cc(C(=O)NCc2cccc(OC(F)F)c2)ccc1-c1cn[nH]c1 [Example 78, N-(3-(difluoro-methoxy)benzyl)-3-methoxy-4-(1H-pyrazol-4-yl)benzamide]
0.0228	0.00796	COc1cc(C(=O)NCc2ccc(F)c(F)c2)ccc1-c1cn[nH]c1 [Example 79, N-(3,4-difluorobenzyl)-3-methoxy-4-(1H-pyrazol-4-yl)benzamide]
0.0132	0.00297	COc1cc(C(=O)NCc2c(F)ccc(C)c2F)ccc1-c1cn[nH]c1 [Example 80, N-(2,6-difluoro-3-methylbenzyl)-3-methoxy-4-(1H-pyrazol-4-yl)benzamide]
0.00989	0.00439	COc1cc(C(=O)NCc2cc(F)ccc2Cl)ccc1-c1cn[nH]c1 [Example 82, N-(2-chloro-5-fluorobenzyl)-3-methoxy-4-(1H-pyrazol-4-yl)benzamide]
0.00316	0.00114	COc1cc(C(=O)NCc2cccc(C(=O)NC3(C)CC3)c2)ccc1-c1cn[nH]c1 [Example 83, 3-methoxy-N-(3-((1-methylcyclopropyl)carbamoyl)benzyl)-4-(1H-pyrazol-4-yl)benzamide]
0.011	0.00351	Cc1cc(C(=O)N[C@H](C)c2ccccc2)ccc1-c1cn[nH]c1 [Example 84, 3-Methyl-N-[(1R)-1-phenylethyl]-4-(1H-pyrazol-4-yl)benzamide]
2.51	0.474	COc1cc(C(=O)NCc2cccc(CN(C)C)c2)ccc1-c1cn[nH]c1 [Example 85, N-({3-[(dimethylamino)methyl]phenyl}methyl)-3-methoxy-4-(1H-pyrazol-4-yl)benzamide]

Structure (SMILES)	IC50 (ROCK1) [µM]	IC50 (ROCK2) [µM]
COc1cc(C(=O)NCc2ccc(OCC(C)C)cc2Cl)ccc1-c1cn[nH]c1 [Example 46, N-(2-chloro-4-isobutoxybenzyl)-3-methoxy-4-(1H-pyrazol-4-yl)benzamide]	1.88	0.786
COc1cccc(CNC(=O)c2ccc(-c3c[nH]nc3C)c(OC)c2)c1 [Example 56, 3-Methoxy-N-(3-methoxybenzyl)-4-(3-methyl-1H-pyrazol-4-yl)benzamide]	0.461	0.204
